# From US8153400B1, “Nucleic acids encoding a mutT domain-containing polypeptide” (Beth Israel Deaconess Medical Center, Inc., priority 1999, dated 2012)
# Entries after “also recorded” stand apart in the source; their conditions may differ.
# Key:
# TrpC7 = target: T1, TrpC7 (Homo sapiens, UniProt O94759, Q1189R); experiment: Whole-cell patch-clamp of membrane currents in tetracycline-inducible HEK293 cells expressing FLAG-TrpC7; format: cell-based; conditions: for gating of TrpC7 / induced plasma membrane currents: 100 μM in patch pipette, currents at -80 mV; for gating of TrpC7 / induced plasma membrane currents / gating of TrpC7: after tetracycline induction
# T1 construct: expressed in transfected cells; host or cells: HEK293 cells expressing the tetracycline repressor (pcDNA6/TR); construct in pcDNA4/TO
# Protocol: Wild type and tetracycline-inducible HEK293 FLAG-TrpC7 expressing cells were cultured at 37° C./5% CO2 in DMEM supplemented with 10% FBS and 2 mM glutamine. The medium was supplemented with blasticidin (5 μg/ml; Invitrogen) and zeocin (0.4 mg/ml; Invitrogen). Cells were resuspended in media containing 1 μg/ml tetracycline (Invitrogen) 24 hours before patch-clamp experiments.
# For patch-clamp experiments, coverslips were transferred to the recording chamber and kept in a standard modified Ringer's solution of the following composition (in mM): NaCl 145, KCl 2.8, CaCl2 1, MgCl2 2, glucose 10, Hepes-NaOH 10, pH 7.2. Intracellular pipette-filling solutions contained (in mM): Cs-glutamate 145, NaCl 8, MgCl2 1, Cs-BAPTA 10, pH 7.2 adjusted with CsOH. […] The agonists were dissolved in the standard intracellular solution. Ionomycin (Sigma) was added to the extracellular standard solution.
# Patch-clamp experiments were performed in the tight-seal whole-cell configuration at 21-25° C. High-resolution current recordings were acquired by a computer-based patch-clamp amplifier system (EPC-9, HEKA, Lambrecht, Germany). […] Immediately following establishment of the whole-cell configuration, voltage ramps of 50 ms duration spanning the voltage range of −100 to +100 mV were delivered from a holding potential of 0 mV at a rate of 0.5 Hz over a period of 200 to 400 seconds. All voltages were corrected for a liquid junction potential of 10 mV between external and internal solutions. Currents were filtered at 2.9 kHz and digitized at 100 μs intervals. Capacitive currents and series resistance were determined and corrected before each voltage ramp using the automatic capacitance compensation of the EPC-9. For analysis, the very first ramps were digitally filtered at 2 kHz, pooled and used for leak-subtraction of all subsequent current records. The low-resolution temporal development of currents at a given potential was extracted from the leak-corrected individual ramp current records by measuring the current amplitudes at voltages of −80 mV or +80 mV.
# [1] = target: T2, TrpC7 NUDT9 homology region (Homo sapiens, UniProt O94759); experiment: Nudix type enzyme assay (ADP-ribose hydrolysis, liberated orthophosphate), TrpC7 NUDT9 homology region; format: biochemical; conditions: ADP-ribose as substrate
# T2 construct: an NcoI site, an artificial start codon, amino acids 1197-1503, a stop codon, and a 3′ NotI site; Met from artificial start codon (N); made in house; host or cells: E. coli BL21 (DE3), pET-24d
# Protocol: (§1) BL21 (DE3) cells containing the respective expression plasmids were grown at 37° C. in LB broth on a shaker to an A600 of about 0.6 and induced by the addition of isopropyl-β-D-thiogalactopyranoside to a concentration of 1 mM. The cells were allowed to grow for an additional 4 h, harvested, washed by suspension in isotonic saline, centrifuged in pre-weighed centrifuge tubes, and the packed cells were stored at −80° C. […] In the case of NUDT9, enzyme was extracted in the freeze-thaw fraction and ammonium sulfate was added to 35% final concentration. The precipitate was discarded after centrifugation and ammonium sulfate was added to the supernatant to a final concentration of 50%. The precipitate was collected by centrifugation, dissolved then chromatographed, then chromatographed on a gel filtration column (Sephadex G-100). […]
# (§2) Enzyme Assay—Enzyme velocities were quantified by measuring the conversion of a phosphatase-insensitive substrate, ADP-ribose, to the phosphatase-sensitive products, AMP and ribose-5-phosphate. The liberated inorganic orthophosphate was measured by the procedure of Ames and Dubin (Ames, B. N., and Dubin, D. T., J. Biol. Chem. 1960, 235:769-775). […] After 30 min at 37° C., the reaction was terminated by the addition of EDTA and inorganic orthophosphate was measured.
# (§3) Km and Vmax were calculated by non-linear regression analysis of Lineweaver-Burke plots.
# NUDT9 (mutTCCH-1) = target: T3, NUDT9 (mutTCCH-1) (Homo sapiens, UniProt Q9BW91); experiment: Nudix type enzyme assay, substrate screen with recombinant NUDT9; format: biochemical; conditions: panel of nucleoside diphosphate derivatives; products AMP and ribose-5-phosphate
# T3 construct: made in house; host or cells: E. coli BL21 (DE3), pET-24d
# T3 sequence (Q9BW91 47-350): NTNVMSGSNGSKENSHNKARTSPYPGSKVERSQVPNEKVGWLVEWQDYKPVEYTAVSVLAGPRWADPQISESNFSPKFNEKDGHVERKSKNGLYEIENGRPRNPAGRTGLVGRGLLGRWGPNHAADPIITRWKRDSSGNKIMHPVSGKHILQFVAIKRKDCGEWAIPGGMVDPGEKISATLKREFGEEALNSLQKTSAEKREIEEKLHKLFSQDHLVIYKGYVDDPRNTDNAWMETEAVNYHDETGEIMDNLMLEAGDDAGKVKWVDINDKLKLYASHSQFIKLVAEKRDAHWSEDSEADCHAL
# Protocol: as §1, §2, §3
# [2] = system: non-selective plasma membrane ion channel in ascidian oocytes; conditions: cited from earlier work
# [3] = intracellular perfusion, current magnitude and latency
# T1 sequence (O94759 3-1503 Q1189R): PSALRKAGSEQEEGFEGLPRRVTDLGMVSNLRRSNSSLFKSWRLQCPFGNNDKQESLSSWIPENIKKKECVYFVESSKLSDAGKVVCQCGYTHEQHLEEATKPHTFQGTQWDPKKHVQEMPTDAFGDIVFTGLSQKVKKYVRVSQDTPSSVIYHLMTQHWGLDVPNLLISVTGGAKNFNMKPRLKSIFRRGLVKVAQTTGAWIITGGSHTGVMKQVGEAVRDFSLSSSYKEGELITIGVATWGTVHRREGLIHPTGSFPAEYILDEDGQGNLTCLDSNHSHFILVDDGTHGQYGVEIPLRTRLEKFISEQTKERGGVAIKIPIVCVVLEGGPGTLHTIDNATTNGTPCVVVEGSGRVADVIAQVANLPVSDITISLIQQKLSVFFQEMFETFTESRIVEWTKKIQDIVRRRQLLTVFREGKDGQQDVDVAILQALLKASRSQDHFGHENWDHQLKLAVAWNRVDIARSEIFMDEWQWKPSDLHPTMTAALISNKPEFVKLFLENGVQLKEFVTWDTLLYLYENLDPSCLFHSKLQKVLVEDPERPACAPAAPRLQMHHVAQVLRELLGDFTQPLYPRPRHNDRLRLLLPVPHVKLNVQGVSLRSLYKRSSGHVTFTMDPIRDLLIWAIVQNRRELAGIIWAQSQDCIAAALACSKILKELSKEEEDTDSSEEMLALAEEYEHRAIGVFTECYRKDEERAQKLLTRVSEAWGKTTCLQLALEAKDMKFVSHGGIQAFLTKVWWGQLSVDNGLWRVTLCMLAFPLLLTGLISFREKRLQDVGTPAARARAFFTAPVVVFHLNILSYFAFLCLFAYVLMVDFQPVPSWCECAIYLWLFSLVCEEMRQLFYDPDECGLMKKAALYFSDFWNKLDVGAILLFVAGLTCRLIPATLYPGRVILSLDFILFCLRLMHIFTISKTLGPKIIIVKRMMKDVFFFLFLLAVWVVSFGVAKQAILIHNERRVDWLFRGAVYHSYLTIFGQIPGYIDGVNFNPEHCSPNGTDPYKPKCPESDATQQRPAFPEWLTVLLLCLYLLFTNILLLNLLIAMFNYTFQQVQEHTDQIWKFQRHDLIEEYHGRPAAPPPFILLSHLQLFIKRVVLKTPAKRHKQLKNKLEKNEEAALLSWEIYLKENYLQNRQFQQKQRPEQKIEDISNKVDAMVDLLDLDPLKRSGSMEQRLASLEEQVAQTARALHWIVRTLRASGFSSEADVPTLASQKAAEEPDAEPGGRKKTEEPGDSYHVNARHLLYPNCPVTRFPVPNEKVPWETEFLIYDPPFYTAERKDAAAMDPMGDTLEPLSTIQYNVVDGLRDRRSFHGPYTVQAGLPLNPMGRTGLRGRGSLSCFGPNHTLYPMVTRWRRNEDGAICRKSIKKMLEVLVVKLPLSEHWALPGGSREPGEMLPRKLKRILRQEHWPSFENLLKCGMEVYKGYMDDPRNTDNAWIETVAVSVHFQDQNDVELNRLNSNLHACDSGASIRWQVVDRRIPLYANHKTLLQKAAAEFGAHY
# T2 sequence (O94759 1197-1503): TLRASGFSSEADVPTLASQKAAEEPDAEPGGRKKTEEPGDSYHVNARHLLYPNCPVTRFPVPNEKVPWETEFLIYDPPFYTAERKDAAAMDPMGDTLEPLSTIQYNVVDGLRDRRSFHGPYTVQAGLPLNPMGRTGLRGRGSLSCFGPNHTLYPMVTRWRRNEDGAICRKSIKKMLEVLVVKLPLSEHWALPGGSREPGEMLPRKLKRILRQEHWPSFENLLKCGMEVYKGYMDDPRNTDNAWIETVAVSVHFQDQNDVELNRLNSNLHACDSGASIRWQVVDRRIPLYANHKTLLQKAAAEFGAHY
smiles,measurement,setting,value
Nc1ncnc2c1ncn2[C@@H]1O[C@H](COP(=O)(O)OP(=O)(O)O[C@H]2O[C@H](CO)[C@@H](O)[C@H](O)[C@H]2O)[C@@H](O)[C@H]1O [ADP-glucose],gating of TrpC7 / induced plasma membrane currents,TrpC7,no detectable gating
Nc1ncnc2c1ncn2[C@@H]1O[C@H](COP(=O)(O)OP(=O)(O)O[C@H]2O[C@H](CO)[C@@H](O)[C@H](O)[C@@H]2O)[C@@H](O)[C@H]1O [ADP-mannose],gating of TrpC7 / induced plasma membrane currents,TrpC7,no detectable gating
"Nc1ncnc2c1ncn2[C@@H]1O[C@H](COP(=O)(O)OP(=O)(O)OC[C@H]2OC(O)[C@H](O)[C@@H]2O)[C@@H](O)[C@H]1O (some centres unmarked) [ADP-ribose, Adenosine 5-diphospho (ADP)-ribose]",gating of TrpC7 / induced plasma membrane currents,TrpC7,extremely large currents are induced; also recorded: large inward currents
same,currents induced by intracellular perfusion,"TrpC7; 300 μM, tetracycline-induced cells, -80 mV and +80 mV",almost linear cationic currents with slight outward rectification
same,concentration at which TrpC7 activation begins to occur,TrpC7; [3],60-100 μLM
same,concentration at which TrpC7 activation saturates,TrpC7; [3],around 300 μM
same,Kd,"TrpC7; peak current amplitudes at -80 mV, 10 μM to 1 mM, read-out: apparent KD of dose-response curve for gating of TrpC7",90 µM
same,effect on plasma membrane currents,TrpC7; without tetracycline induction (no FLAG-TrpC7 expression),no detectable effect
same,activity relative to that observed for NUDT9,[1],approximately 1%
same,Vmax (specific activity),[1]; E. coli expressed protein,0.1 μmol/min/mg protein
same,substrate specificity of recombinant NUDT9,NUDT9 (mutTCCH-1),highly specific ADP-ribose pyrophosphatase
same,concentration that gates the currents,[2],≥ 10 nM
"Nc1nc2c(ncn2[C@@H]2O[C@H](COP(=O)(O)OP(=O)(O)O[C@H]3O[C@H](CO)[C@@H](O)[C@H](O)[C@H]3O)[C@@H](O)[C@H]2O)c(=O)[nH]1 [GDP-glucose, guanosine 5-diphospho (GDP)-glucose]",gating of TrpC7 / induced plasma membrane currents,TrpC7,no detectable gating
Nc1nc2c(ncn2[C@@H]2O[C@H](COP(=O)(O)OP(=O)(O)O[C@H]3O[C@H](CO)[C@@H](O)[C@H](O)[C@@H]3O)[C@@H](O)[C@H]2O)c(=O)[nH]1 [GDP-mannose],gating of TrpC7 / induced plasma membrane currents,TrpC7,no detectable gating
"N=c1c2ncn3c2ncn1[C@@H]1O[C@H](COP(=O)(O)OP(=O)(O)OC[C@H]2O[C@@H]3[C@H](O)[C@@H]2O)[C@@H](O)[C@H]1O [cyclic ADP-ribose, cyclic ADP-Ribose]",gating of TrpC7 / induced plasma membrane currents,TrpC7,no detectable gating
"O=P(O)(O)O[C@@H]1[C@H](O)[C@H](O)[C@@H](OP(=O)(O)O)[C@H](OP(=O)(O)O)[C@H]1O [inositol-1,4,5-trisphosphate, inositol 1,4,5-trisphosphate]",gating of TrpC7,TrpC7; 20 μM in patch pipette,no detectable gating
"C[C@H](CCC(=O)O)C[C@H](C)C[C@H](C)C(=O)/C=C(\O)[C@H](C)C[C@H](C)C/C=C/[C@@H](C)[C@@H](O)[C@@H](C)[C@@H](O)C[C@@H]1CC[C@@](C)([C@H]2CC[C@@](C)([C@@H](C)O)O2)O1 [ionomycin, Ionomycin]",gating of TrpC7,"TrpC7; 10 μM, added to the extracellular solution",no detectable gating
